Measured values published in PubChem BioAssay (NCI).
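A five-concentration, 48-hour dose response in 96-well plates underlies each endpoint, interpolated linearly between surrounding concentrations. GI50: concentration for 50% inhibition of growth. TGI marks complete inhibition of growth.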

Legend:
Test in all cases: inhibition of tumour cell growth, NCI panel, 48 h
[1] = tested on: K-562 leukemia
[2] = tested on: RXF 393 renal
[3] = tested on: ACHN renal
[4] = tested on: HCT-116 colon
[5] = tested on: DU-145 prostate
[6] = tested on: HOP-62 NSCLC
[7] = tested on: UACC-257 melanoma
[8] = tested on: SNB-19 CNS
[9] = tested on: NCI-H226 lung
[10] = tested on: MCF7 breast
[11] = tested on: TK-10 renal
[12] = tested on: NCI-H460 lung
[13] = tested on: BT-549 breast
[14] = tested on: T-47D breast
[15] = tested on: EKVX NSCLC
[16] = tested on: A498 renal
[17] = tested on: KM12 colon
[18] = tested on: NCI-H522 lung
[19] = tested on: NCI-H23 lung
[20] = tested on: UACC-62 melanoma
[21] = tested on: SF-539 CNS
[22] = tested on: OVCAR-8 ovarian
[23] = tested on: CCRF-CEM leukemia
[24] = tested on: MDA-MB-435
[25] = tested on: SK-OV-3 ovarian
[26] = tested on: IGROV1 ovarian
[27] = tested on: 786-0 renal
[28] = tested on: SF-268 CNS
[29] = tested on: A549 NSCLC
[30] = tested on: U251 CNS
[31] = tested on: RPMI-8226 leukemia
[32] = tested on: SNB-75 CNS
[33] = tested on: HOP-92 NSCLC
[34] = tested on: CAKI-1 renal
[35] = tested on: HL-60(TB) leukemia
[36] = tested on: HS 578T breast
[37] = tested on: UO-31 renal

## C#C[C@]1(O)CC[C@H]2[C@@H]3CC=C4c5sc(Nc6nc(C)cc(OC)n6)nc5CC[C@]4(C)[C@H]3CC[C@@]21C
[1]
  GI50: 528 nM
  TGI: > 100000 nM
[2]
  GI50: 161 nM
  TGI: 497 nM
[3]
  GI50: 1190 nM
  TGI: > 100000 nM
[4]
  GI50: 1240 nM
  TGI: > 100000 nM
[5]
  GI50: 3250 nM
  TGI: > 100000 nM
[6]
  GI50: 2010 nM
  TGI: 35200 nM
[7]
  GI50: 1740 nM
  TGI: 4820 nM
[8]
  GI50: 986 nM
  TGI: > 100000 nM
[9]
  GI50: > 100000 nM
  TGI: > 100000 nM
[10]
  GI50: 1410 nM
  TGI: > 100000 nM
[11]
  GI50: 14900 nM
  TGI: > 100000 nM
[12]
  GI50: 1820 nM
  TGI: > 100000 nM
[13]
  GI50: 4500 nM
  TGI: 79900 nM
[14]
  GI50: 2570 nM
  TGI: > 100000 nM
[15]
  GI50: 2390 nM
  TGI: > 100000 nM
[16]
  GI50: 1510 nM
  TGI: 5930 nM
[17]
  GI50: 3160 nM
  TGI: > 100000 nM
[18]
  GI50: 3020 nM
  TGI: > 100000 nM
[19]
  GI50: 3930 nM
  TGI: > 100000 nM
[20]
  GI50: 540 nM
  TGI: 2730 nM
[21]
  GI50: 264 nM
  TGI: 1430 nM
[22]
  GI50: 4160 nM
  TGI: > 100000 nM
[23]
  GI50: 1210 nM
  TGI: > 100000 nM
[24]
  GI50: 2350 nM
  TGI: > 100000 nM
[25]
  GI50: 1550 nM
  TGI: 9130 nM
[26]
  GI50: 3440 nM
  TGI: > 100000 nM
[27]
  GI50: 379 nM
  TGI: 2280 nM
[28]
  GI50: 5470 nM
  TGI: > 100000 nM
[29]
  GI50: 2970 nM
  TGI: > 100000 nM
[30]
  GI50: 575 nM
  TGI: 73100 nM
[31]
  GI50: 239 nM
  TGI: 899 nM
[32]
  GI50: 864 nM
  TGI: 84800 nM
[33]
  GI50: 2650 nM
  TGI: 7690 nM
[34]
  GI50: 1550 nM
  TGI: > 100000 nM
[35]
  GI50: 531 nM
  TGI: 5380 nM
[36]
  GI50: 323 nM
  TGI: 2190 nM
[37]
  GI50: 575 nM
  TGI: 3180 nM
